# pIC50: −log10 of the molar value.
# Key:
# SW-620 [1] = experiment: Antiproliferative activity against human SW620 cells assessed as cell growth inhibition at 40 uM incubated for 48 hrs by MTT assay relative to control; assay type: functional; design: scale not given: the % may be the effect or the level left
# SW620/5-FU [2] = experiment: Antiproliferative activity against human SW620/5-FU cells assessed as reduction in cell viability at 40 uM incubated for 48 hrs by MTT assay; assay type: functional
# SW620/5-FU [3] = experiment: Induction of apoptosis in human SW620/5-FU cells assessed as necrotic cells at 40 uM incubated for 24 hrs by Annexin-V/PI staining based flow cytometry assay (reference value: 0%); assay type: functional
# SW620/5-FU [4] = experiment: Antitumor activity against human SW620/5-FU cells xenografted in nude mouse assessed as tumor wight at 15 mg/kg, iv administered once for every 3 days (reference value: 1.3 +/- 0.6 g); assay type: functional
# SW620/5-FU [5] = experiment: Antitumor activity against human SW620/5-FU cells xenografted in nude mouse assessed as tumor growth inhibition at 15 mg/kg, iv administered once for every 3 days; assay type: functional; settings: 72 h, read-out: TGI
# SW620/5-FU [6] = experiment: Antitumor activity against human SW620/5-FU cells xenografted in nude mouse assessed as tumor volume at 15 mg/kg, iv administered once daily and measured on day 15 (reference value: 1991 +/- 469 mm3); assay type: functional; settings: time 15 day
# SW620/5-FU [7] = experiment: Antitumor activity against human SW620/5-FU cells xenografted in nude mouse assessed as tumor volume at 15 mg/kg, iv administered once for every 3 days and measured on day 15 (reference value: 1991 +/- 469 mm3); assay type: functional; settings: time 15 day
# SW620/5-FU [8] = experiment: Antitumor activity against human SW620/5-FU cells xenografted in nude mouse assessed as tumor volume at 15 mg/kg, iv administered once for every 3 days and measured on day 1 (reference value: 105 +/- 14 mm3); assay type: functional; settings: time 1 day
# SW620/5-FU [9] = experiment: Induction of apoptosis in human SW620/5-FU cells assessed as viable cells at 40 uM incubated for 24 hrs by Annexin-V/PI staining based flow cytometry assay (reference value: 94.3%); assay type: functional; settings: read-out: Activity
# NCM460 = experiment: Cytotoxicity against human NCM460 cells assessed as reduction in cell viability at 40 uM incubated for 48 hrs by MTT assay; assay type: toxicity, cell-based; settings: ncm460, 48 h
# HT-29 [10] = experiment: Antiproliferative activity against human HT-29 cells assessed as cell growth inhibition at 40 uM incubated for 48 hrs by MTT assay relative to control; assay type: functional; design: scale not given: the % may be the effect or the level left
# SW620/5-FU [11] = experiment: Antitumor activity against human SW620/5-FU cells xenografted in nude mouse assessed as tumor growth inhibition at 15 mg/kg/day, iv; assay type: functional; settings: read-out: TGI
# HCT-116 [12] = experiment: Antiproliferative activity against human HCT-116 cells overexpressing DPD assessed as reduction in cell viability at 40 uM incubated for 48 hrs by MTT assay; assay type: functional
# SW620/5-FU [13] = experiment: Induction of apoptosis in human SW620/5-FU cells assessed as late apoptotic cells at 40 uM incubated for 24 hrs by Annexin-V/PI staining based flow cytometry assay (reference value: 2.97%); assay type: functional
# SW-620 [14] = experiment: Antiproliferative activity against human SW620 cells assessed as reduction in cell viability incubated for 48 hrs by MTT assay; assay type: functional, cell-based; settings: SW-620, 48 h
# HT-29 [15] = experiment: Antiproliferative activity against human HT-29 cells assessed as reduction in cell viability at 40 uM incubated for 48 hrs by MTT assay; assay type: functional
# SW620/5-FU [16] = experiment: Antitumor activity against human SW620/5-FU cells xenografted in nude mouse assessed as tumor volume at 15 mg/kg, iv administered once daily and measured on day 1 (reference value: 105 +/- 14 mm3); assay type: functional; settings: time 1 day
# SW620/5-FU [17] = experiment: Antitumor activity against human SW620/5-FU cells xenografted in nude mouse assessed as tumor wight at 15 mg/kg/day, iv (reference value: 1.3 +/- 0.6 g); assay type: functional
# HCT-116 [18] = experiment: Antiproliferative activity against human HCT-116 cells assessed as reduction in cell viability incubated for 48 hrs by MTT assay; settings: HCT-116, 48 h
# SW620/5-FU [19] = experiment: Induction of apoptosis in human SW620/5-FU cells assessed as early apoptotic cells at 40 uM incubated for 24 hrs by Annexin-V/PI staining based flow cytometry assay (reference value: 2.73%); assay type: functional
# HCT-116 [20] = experiment: Antiproliferative activity against human HCT-116 cells assessed as cell growth inhibition at 40 uM incubated for 48 hrs by MTT assay relative to control; assay type: functional; design: scale not given: the % may be the effect or the level left
smiles,measurement,setting,value
O=c1[nH]cc(F)c(=O)[nH]1 [FLUOROURACIL],Activity,SW-620 [1],>70%
same,Activity,SW620/5-FU [2],9.13%
same,Activity,SW620/5-FU [3],0.17%
same,Activity,SW620/5-FU [4],1.1 g
same,inhibition in vivo at 15 mg/kg,SW620/5-FU [5],15.9%
same,Activity,SW620/5-FU [6],1256 mm3
same,Activity,SW620/5-FU [7],1675 mm3
same,Activity,SW620/5-FU [8],104 mm3
same,viability at 40 µM,SW620/5-FU [9],87.7%
same,Activity,NCM460,25.33%
same,Activity,HT-29 [10],>70%
same,inhibition in vivo at 15 mg/kg/day,SW620/5-FU [11],36.9%
same,Activity,HCT-116 [12],8.12%
same,Activity,SW620/5-FU [13],7.76%
same,pIC50,SW-620 [14],4.88
same,Activity,HT-29 [15],5.14%
same,Activity,SW620/5-FU [16],102 mm3
same,Activity,SW620/5-FU [17],0.8 g
same,pIC50,HCT-116 [18],4.67
same,Activity,SW620/5-FU [19],4.41%
same,Activity,HCT-116 [20],>70%

# Source: ChEMBL document CHEMBL5096216, “Rational Design, Synthesis, and Biological Evaluation of Novel S1PR2 Antagonists for Reversing 5-FU-Resistance in Colorectal Cancer” (J Med Chem, 2022)
